IC50 and Kd data for 9 molecules are collected here from ChEMBL document CHEMBL4680356, “Discovery of a novel 53BP1 inhibitor through AlphaScreen-based high-throughput screening” (Bioorg Med Chem, 2021).

SMILES strings stand for the structures.

In experiment [1] the target is T1, TP53-binding protein 1 (Homo sapiens, UniProt Q12888). Put plainly: Inhibition of recombinant human N-terminal His6-tagged 53BP1 TTD (1484 to1603 residues) expressed in Escherichia coli BL21 (DE3) cells using Biotin-H4K2Ome2 as substrate preincubated for 30 mins followed by substrate addition and measured after 30 mins by AlphaScreen assay. In general terms: Bead proximity is the source of the signal in Alpha formats.
T1 sequence (Q12888 whole entry, the tested form may be a part): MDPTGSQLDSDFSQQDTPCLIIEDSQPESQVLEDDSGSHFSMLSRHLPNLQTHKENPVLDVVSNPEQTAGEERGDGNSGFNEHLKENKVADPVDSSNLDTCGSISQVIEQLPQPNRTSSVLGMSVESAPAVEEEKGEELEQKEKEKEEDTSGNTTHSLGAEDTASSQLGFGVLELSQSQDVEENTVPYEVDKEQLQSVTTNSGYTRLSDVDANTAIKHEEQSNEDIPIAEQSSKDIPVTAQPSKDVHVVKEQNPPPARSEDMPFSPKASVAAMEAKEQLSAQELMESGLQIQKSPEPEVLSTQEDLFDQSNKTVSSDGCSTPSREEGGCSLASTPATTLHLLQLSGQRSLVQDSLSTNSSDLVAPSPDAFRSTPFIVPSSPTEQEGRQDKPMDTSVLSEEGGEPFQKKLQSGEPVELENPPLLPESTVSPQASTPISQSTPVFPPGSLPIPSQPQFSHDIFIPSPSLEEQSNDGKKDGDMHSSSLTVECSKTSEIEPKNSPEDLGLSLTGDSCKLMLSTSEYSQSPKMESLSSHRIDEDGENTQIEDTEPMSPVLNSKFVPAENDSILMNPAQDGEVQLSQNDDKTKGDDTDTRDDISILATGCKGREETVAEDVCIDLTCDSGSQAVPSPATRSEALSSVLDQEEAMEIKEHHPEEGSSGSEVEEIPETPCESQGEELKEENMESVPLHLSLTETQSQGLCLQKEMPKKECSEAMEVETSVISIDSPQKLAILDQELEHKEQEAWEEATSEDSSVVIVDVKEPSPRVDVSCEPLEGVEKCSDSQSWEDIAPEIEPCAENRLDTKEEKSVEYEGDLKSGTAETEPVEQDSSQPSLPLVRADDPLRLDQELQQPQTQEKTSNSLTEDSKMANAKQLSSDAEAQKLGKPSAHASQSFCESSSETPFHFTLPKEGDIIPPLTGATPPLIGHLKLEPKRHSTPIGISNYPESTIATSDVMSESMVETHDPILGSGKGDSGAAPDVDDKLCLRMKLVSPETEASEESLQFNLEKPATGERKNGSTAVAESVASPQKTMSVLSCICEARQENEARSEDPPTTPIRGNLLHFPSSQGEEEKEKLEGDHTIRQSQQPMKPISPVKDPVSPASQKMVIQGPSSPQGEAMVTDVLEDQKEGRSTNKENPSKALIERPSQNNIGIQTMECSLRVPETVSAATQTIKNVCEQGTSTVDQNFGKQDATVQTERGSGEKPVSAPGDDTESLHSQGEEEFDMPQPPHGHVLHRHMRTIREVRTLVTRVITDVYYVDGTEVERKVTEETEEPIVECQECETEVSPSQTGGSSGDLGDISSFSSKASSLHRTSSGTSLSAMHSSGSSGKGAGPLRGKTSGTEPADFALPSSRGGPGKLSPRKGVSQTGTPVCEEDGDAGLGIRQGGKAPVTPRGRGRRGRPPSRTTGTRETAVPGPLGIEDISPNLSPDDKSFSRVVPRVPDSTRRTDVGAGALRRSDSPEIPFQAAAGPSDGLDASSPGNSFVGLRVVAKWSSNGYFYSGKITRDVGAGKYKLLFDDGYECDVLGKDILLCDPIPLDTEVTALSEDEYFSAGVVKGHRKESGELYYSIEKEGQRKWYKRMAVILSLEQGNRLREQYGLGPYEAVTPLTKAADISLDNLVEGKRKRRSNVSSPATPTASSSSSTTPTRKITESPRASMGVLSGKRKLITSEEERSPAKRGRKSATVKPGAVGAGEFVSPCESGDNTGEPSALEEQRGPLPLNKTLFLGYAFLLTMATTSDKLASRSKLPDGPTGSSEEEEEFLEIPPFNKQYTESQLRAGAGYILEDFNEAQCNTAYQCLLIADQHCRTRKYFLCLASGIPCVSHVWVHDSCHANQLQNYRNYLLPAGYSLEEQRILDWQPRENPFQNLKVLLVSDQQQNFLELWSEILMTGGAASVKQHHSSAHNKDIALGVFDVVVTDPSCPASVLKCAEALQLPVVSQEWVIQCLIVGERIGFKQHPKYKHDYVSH

Experiment [2] addresses T1, TP53-binding protein 1. The experiment in a line: Binding affinity to recombinant human N-terminal His6-tagged 53BP1 TTD (1484 to1603 residues) expressed in Escherichia coli BL21 (DE3) cells by SPR analysis.
Experiment [3] concerns the target T1, TP53-binding protein 1. The experiment in a line: Binding affinity to recombinant human N-terminal His6-tagged lysine dye- labeled 53BP1 TTD (1484 to1603 residues) expressed in Escherichia coli BL21 (DE3) cells incubated for 10 mins by MST assay.

For the molecule `O=C(/C=C/c1ccco1)Nc1cccc2ncccc12`, at TP53-binding protein 1 [1], the IC50 (usually the concentration that inhibits the measured activity by half) was more than 50 µM.
On to `CCN(CC)c1cc(C)c2cc(NC(=O)/C=C/c3ccco3)ccc2n1`, for which the IC50 at TP53-binding protein 1 [1] amounted to 1.69 µM. Besides, the Kd (as a rule, the free concentration of one partner at which half of the binding sites on the other are occupied at equilibrium, for simple one-to-one binding) at TP53-binding protein 1 [2] amounted to 2.7 µM; at TP53-binding protein 1 [3], 2.69 µM.
Turning to `Cc1cc(N2CCCCC2)nc2ccc(NC(=O)/C=C/c3ccco3)cc12`, the IC50 at TP53-binding protein 1 [1] worked out at 15.1 µM.
Same read-out and setting: with `CCN(CC)c1cc(C)c2cc(NC(=O)/C=C/c3ccccn3)ccc2n1` the figure was 31.3 µM; with `CN(C)c1ccc2cc(NC(=O)/C=C/c3cccc4cccnc34)ccc2n1`, more than 50 µM; with `Cc1cc(N(C)C)nc2ccc(NC(=O)/C=C/c3ccco3)cc12`, 4.2 µM.
The same measure, in the same setting: with `CCN(CC)c1cc(C)c2cc(NC(=O)/C=C/c3ccc4ccoc4c3)ccc2n1` the figure was more than 50 µM.
Turning to `Cc1cc2cc(NC(=O)/C=C/c3ccco3)ccc2[nH]1`, the IC50 on TP53-binding protein 1 [1] is 22.3 µM.
Still for that read-out and setting: the same measure for `CCN(CC)c1cc(C)c2cc(N(C)C(=O)/C=C/c3ccco3)ccc2n1`: 17.8 µM.
